Where two headings read alike, the source gives them in different places.
Tests used:
[1] = molecular target: T1, His-tagged human β-cat (134-668) (Homo sapiens, UniProt P35222); assay: SPR binding to β-cat
T1 construct: His-tagged human β-cat (134-668); made in house; host or cells: E. coli BL21(DE3)
Description: BL21(DE3) cells harboring pET-28 β-cat expression vector of His-tagged human β-cat (134-668) were cultured at 37° C. until OD600=0.6-0.8. The cells were then induced with 500 μM isopropyl-β-D-thiogalactopyranoside (IPTG) for 6-8 hr at 23° C. Cells were lysed by sonication in lysis buffer containing 20 mM Tris (pH 8.8), 250 mM NaCl, 2 mM DTT, 5% glycerol, 0.1% Triton X-100, and cOmplete protease inhibitor cocktail (EDTA free, Roche cat. #11873580001). The lysate was incubated with Ni-NTA agarose beads (Qiagen cat. #30210) at 4° C. for 1 hr, and the beads were then washed with lysis buffer containing 20 mM imidazole. Bound protein was eluted with buffer containing 20 mM Tris (pH 8.8), 250 mM NaCl, 0.5 mM tris(2-carboxyethyl)phosphine (TCEP), 5% glycerol, and 250 mM imidazole.
Surface plasmon resonance experiments were performed using a BIACORE T100 (GE Healthcare) on a CM5 series S sensor chip (GE Healthcare cat. #BR-1005-30). His-tagged β-cat (60 kDa, >90% pure based on SDS-PAGE) was immobilized using amine-coupling chemistry. The surfaces of flow cells one and two were activated with a 1:1 mixture of 0.1 M NHS (N-hydroxysuccinimide) and 0.1 M EDC (3-(N,N-dimethylamino) propyl-N-ethylcarbodiimide) at a flow rate of 5 μL/min. […]

[2] = test system: Wnt target genes in HCT116 CRC cells; assay: Expression of beta-catenin (CTNNB1) and Wnt target genes in HCT116 CRC cells; type: cell-based
Description: The effects of the GB1874 analogues were tested on the expression of Wnt target genes in HCT116 CRC cells.

[3] = test system: Wnt signalling (TOPFlash reporter, STF cells); assay: Wnt STF TOPFlash reporter dose response (Wnt3A-stimulated); type: cell-based
Description: Wnt STF reporter cells (HEK 293 cells stably transfected with TOPFlash reporter) and STF3A reporter cells (STF cells with constitutive secretion of Wnt3A) were kind gifts from David Virshup (Duke-NUS Graduate Medical School, Singapore). HCT116, DLD-1, and SW480 cell lines were obtained from ATCC. The Hippo pathway TEAD reporter (cat. #60618) and Myc signalling pathway reporter (cat. #60520) cells lines were purchased from BPS Bioscience, Inc.
The Wnt STF reporter cells were seeded as 20,000 cells in 100 μL culture medium per well in 96-well plates (Corning cat. #3903, Falcon cat. #353072). The next day, 5-fold dilutions of the compounds in DMSO were added to the cells at a final concentration of 1% DMSO. The cells were also stimulated with 500 ng/mL recombinant human Wnt3A (RnD systems, cat. #5036-WN-010). After 24 hr incubation, the viability of the cells was determined with cell counting kit-8 (CCK-8, Dojindo cat. #CK04) cell viability reagent according to the manufacturer's protocol while the TOPFlash reporter activity was determined with Steady-Glo luciferase reagent.
(§1) The average signal from DMSO treated wells was calculated for each plate, and the signal from each treatment well was normalized against the average DMSO signal from the respective plate. The normalized values were plotted against the concentrations tested using GraphPad Prism 5, and the EC50 values were determined through either three- or four-parameter nonlinear regression.

CRC1177 = assay: Viability of primary patient-derived colorectal cancer cell line; type: cell-based
CRC1671 = assay: as above; type: cell-based
CRC2255 = assay: as above; type: cell-based
CRC1463 = assay: as above; type: cell-based
CRC2440 = assay: as above; type: cell-based
CRC2413 = assay: as above; type: cell-based
DLD-1 cells = assay: Dose response viability of CRC cells (CellTiter-Glo); type: cell-based; details: Homo sapiens, 24 hr
Description: (§2) HCT116, DLD-1, and SW480 cells were seeded as 5,000 cells in 100 μL growth medium per well in 96-well plates (Corning cat. #3903). The next day, 5-fold dilutions of the compounds in DMSO were added to the cells at a final concentration of 1% DMSO. After 24 hr incubation, the viability of the cells was determined with CellTiter-Glo luminescent cell viability reagent (Promega cat. #G7573) according to the manufacturer's protocol.
as §1

SW480 cells = assay: as above; type: cell-based; details: Homo sapiens, 24 hr
Description: as §2, §1

HCT116 cells = assay: as above; type: cell-based; details: Homo sapiens, HCT-116, 24 hr
Description: as §2, §1

CRC2367 = assay: Viability of primary patient-derived colorectal cancer cell line; type: cell-based
CRC1837 = assay: as above; type: cell-based; details: CRC1837, Liver Met
CRC948 = assay: as above; type: cell-based

T1 sequence (P35222 134-668): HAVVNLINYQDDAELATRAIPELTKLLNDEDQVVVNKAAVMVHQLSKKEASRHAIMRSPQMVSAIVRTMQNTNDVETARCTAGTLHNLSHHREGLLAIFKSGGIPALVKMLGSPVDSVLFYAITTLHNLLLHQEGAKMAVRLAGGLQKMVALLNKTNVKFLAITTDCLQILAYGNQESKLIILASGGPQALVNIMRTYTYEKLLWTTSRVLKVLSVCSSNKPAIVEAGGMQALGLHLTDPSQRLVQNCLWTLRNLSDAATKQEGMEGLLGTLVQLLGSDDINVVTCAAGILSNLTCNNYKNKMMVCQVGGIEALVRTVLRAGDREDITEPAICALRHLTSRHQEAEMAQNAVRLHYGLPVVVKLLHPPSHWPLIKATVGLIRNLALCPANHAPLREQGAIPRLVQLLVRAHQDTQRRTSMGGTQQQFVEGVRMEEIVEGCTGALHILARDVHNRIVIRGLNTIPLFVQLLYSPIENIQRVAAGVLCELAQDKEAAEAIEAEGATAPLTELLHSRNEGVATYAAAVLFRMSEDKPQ

For `CCc1ccc(OCc2nnc(SC3CCCC3=O)n2C(C)c2ccccc2)cc1` (stereo not shown) [GB1874], the Kd ([1]; SPR steady state, n=3, 25° C., read-out: dissociation constant KD) was 76 ± 13 µM, the “Hill slope of the best fit curve” value ([1]; SPR steady-state binding curve) was “greater than 1” and the “beta-catenin (CTNNB1) gene expression” value [2] was “lesser effect”. The “expression of Wnt target genes AXIN2, BIRC5, BMP4, CCND1” value [2] was “potently inhibit Wnt target genes”, the IC50 ([3]; Table 1, STF reporter cells, 500 ng/mL Wnt3A, 24 hr, read-out: IC50 Wnt (STF)) was 11 µM and the IC50 ([3]; Table 3, STF reporter cell line, read-out: STF Inhibition IC50) was 6.8 µM. For the same compound, the IC50 ([3]; unit M, read-out: STF IC50) was 6.8 µM, the EC50 (CRC1177) was 19 µM and the EC50 (CRC1671) was 30 µM. For the same compound, the EC50 (CRC2255) was 20 µM, the EC50 (CRC1463) was 27 µM and the EC50 (CRC2440) was 16 µM. It also gave an EC50 (CRC2413) of 16 µM, an EC50 (DLD-1 cells) of 28 µM and an EC50 (SW480 cells) of 24 µM. For the same compound, the EC50 (HCT116 cells) was 45 µM, the EC50 (CRC2367) was 20 µM and the EC50 (CRC1837) was 21 µM. It also gave an EC50 (CRC948) of 17 µM.

Source: patent publication US12661338B2, “Heterocyclic compounds as modulators of beta-catenin / TCF4 interaction” (AGENCY FOR SCIENCE, TECHNOLOGY AND RESEARCH, priority 2019, dated 2026)
